Data taken from patent US9650674B2, “Nucleic acid probes and methods of using the same” (Board of Trustees University of Arkansas, priority 2012, dated 2017).
{Cy5.5} = Cy5.5 near-infrared fluorophore label at the ends

Tests used:
DNase I [1] = target: T1, DNase I (Homo sapiens, UniProt P24855); experiment: DNase I endonuclease activity measured with AB259.3 probe in presence of inhibitors; format: biochemical; conditions: 1 μg/ml DNase I; EDTA 200 μM; FIG. 2D
T1 construct: purchased Sigma (St. Louis, Mo.)
T1 sequence (P24855 23-282): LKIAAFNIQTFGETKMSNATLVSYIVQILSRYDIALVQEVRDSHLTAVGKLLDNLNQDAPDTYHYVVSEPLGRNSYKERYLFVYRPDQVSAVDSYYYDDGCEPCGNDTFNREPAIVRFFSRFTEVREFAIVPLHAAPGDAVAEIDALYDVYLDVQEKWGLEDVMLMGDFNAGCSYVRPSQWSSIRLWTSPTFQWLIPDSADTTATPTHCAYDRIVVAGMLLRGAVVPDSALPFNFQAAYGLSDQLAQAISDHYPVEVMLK
Protocol: (§1) To detect specificity of the assay to DNase I that is a Ca/Mg-dependent endonuclease, AB259.3 probe was tested with 1 μg/ml DNase I in the presence of Ca++ and Mg++ (EAA buffer), in absence of the cations (deionized water), or in excess of EDTA (200 μM). […] Finally, it was tested whether AB259.3 probe will detect inhibition of DNase I activity by DNase I inhibitors such as ZnCl2 and Zn-diisopropyl salicylate (Zn-DIPS).
(§2) All cell-free experiments were performed using the Bio-Tek Synergy 5 fluorescent plate reader. Before experiments, optimal excitation and emission wavelengths were determined. For this, excitation and emission were scanned in the ranges of 600-680 nm and 690-705 nm, respectively. The optimal excitation/emission was determined to be 665/703 nm. All kinetic and endpoint measurements were done in a total volume of 100 μl at 37° C. Unless stated otherwise, DNA substrate was used in final concentration 0.5 μM reconstituted in endonuclease activity assay (EAA) buffer (2 mM CaCl2, 5 mM MgCl2, 10 mM Tris-HCl, pH 7.4) in a 96-well plate. After measurement of starting fluorescence, DNase I or tested material (diluted 1:20 urine or 1:100 serum) were added to the reconstituted probe, rapidly mixed and fluorescence was monitored for up to 60 min with 30-sec intervals. In some instances, EDTA (final concentration 200 μM) or NaOH (50 mM) was added to terminate the reaction. For the experiments that involved assessment of fluorescence after DNA denaturing, probes were tested in Cepheid real-time PCR system using Cy5 setting (Sunnyvale, Calif.).

[2] = test system: wild-type (WT) mouse kidney cryosections; experiment: Endonuclease activity ex vivo in kidney cryosections; conditions: FIG. 5C
Protocol: Next it was examined whether AB259.3 probe can be used for measurement of endonuclease activity in tissue sections. Kidneys were used because they are known for high activity of DNase I (Ca/Mg-dependent endonuclease). Freshly prepared 10 μm thick cryosections of wild-type (WT) mouse kidney were exposed with 5 μM AB259.3 probe in presence of EAA buffer at 37° C. and time-lapse imaged for 10 min with 1-min intervals.
Specimens of kidney, liver, spleen and testis tissues were removed from euthanized mice, immersed in OCT medium, rapidly frozen by Fisher Freeze-it and kept on dry ice for no longer than 1 hour prior slicing. Tissue cryosections (8-μm thick) were prepared using the Microm HM 505E cryotome, placed to the Fisher Plus slides and immediately exposed with 0.5 μM AB259.3 probe diluted in EAA buffer. In control samples, applied probe contained EAA buffer supplemented with 200 μM EDTA. Images were taken in 628/40-692/40 spectrum every 30 sec for 10 min in 10 random XY coordinates. Three sections from each specimen were analyzed separately. Maximal velocity of increasing fluorescence was averaged for each section.

NRK-52E cells = experiment: Intracellular endonuclease activity in cultured cells, time-lapse microscopy; format: cell-based, rat; conditions: 25 μM cisplatin or 50 μM camptothecin for 8 hours; FIGS. 4B and 4C
Protocol: To test whether AB259.3 probe may be delivered intracellularly and thus be used as an indicator of endonuclease activity in live cells, NRK-52E cells were transfected with of AB259.3/Lipofectamine LTX complexes and imaged by time-lapse epifluorescence microscopy every 10 min for 8 hours. A 2.5-3 times increased fluorescence reached plateau in 1 hour after transfection and the cells retained fluorescent dye for the duration of experiment (FIG. 4A). To induce activity of endonucleases, cells were treated with cisplatin or camptothecin and imaged by time-lapse microscopy for Cy5.5 fluorescence. […] Therefore, it was concluded that AB259.3 can be delivered and used for intracellular monitoring of endonuclease activity in live cells. To further determine whether AB259.3 probe can be used in other cell lines, several of them were tested (FIG. 4D). […] It was then determined whether the probe without the loop would be consumed by NRK-52E cells equally to the original loop probe. […] Finally, PCR was used to determine whether the DNA part (as opposed to the fluorophores) of the probes enters the cells in vivo and in vitro.
Rat proximal tubular epithelial NRK-52E cells were used to test the ability of AB259.3 probe to measure endonuclease activity. The cells were seeded in a 24-well plate at 50,000 cells per well in complete DMEM medium supplemented with 10% fetal bovine serum. Cells were transfected with the AB259.3 probe using Lipofectamin LTX and then subjected to spinning disk confocal fluorescent time-lapse microscopy in 628/40-692/40 spectrum every 10 min for 8 hours using Olympus IX-81 image system equipped with Hamamatsu ORCA-ER camera and LiveCell microenvironmental control chamber (Pathology Devices Inc., Westminster, Md.). In separate experiment, cells were treated with either 25 μM cisplatin or 50 μM camptothecin for 8 hours, followed by 1-hour transfection with AB259.3 probe and 8-hour time-lapse imaging session with 10-min intervals using the same microscopy system.

[3] = Baseline fluorescence of hairpin DNA probes; format: physicochemical; conditions: FIG. 1B
Excerpt: It was impossible to determine if the background fluorescence was attributed to the probe or it originated from a partial degradation of the probe. Consequently, the NIRF probes were designed as hairpins to allow testing the integrity of DNA by its denaturing followed by reannealing. The use of hairpin also allows easy measurement of the maximum fluorescence of the probe. The distance between two fluorophores varied by changing of protruding DNA strand length from +0 (AB259.1 probe) to +5 (AB259.3 probe) or to +10 (AB259.5 probe) as shown in FIG. 1A. The baseline fluorescence of probe AB259.1 was 30% higher than negative control without a probe (FIG. 1B).
as §2

[4] = Heat denaturing and reannealing of hairpin probes (probe integrity); format: physicochemical; conditions: ROX internal reference; above background; FIG. 1C
Protocol: To ensure the integrity of the DNA probes, it was tested whether a heat denaturing of the hairpins would cause an increase in fluorescence, and if a reannealing would reverse it. To compensate for thermal change of fluorophore's emission, the ROX fluorophore was added to tested probes as an internal reference.
as §2

[5] = Alkaline denaturing of probes, kinetic fluorescence; format: physicochemical; conditions: alkaline buffer
Protocol: Lastly, the probes' integrity was tested by alkaline denaturing. The probes were treated with alkaline buffer and kinetic detection of the fluorescence was performed. […] AB259.1, AB259.3 and AB259.5 gained 40%, 81%, and 85% of fluorescence, respectively.
as §2

DNase I [6] = target: T1, DNase I; experiment: Kinetic fluorescence of probes exposed to DNase I in vitro; format: biochemical; conditions: probe 0.5 μM, DNase I 1 μg/ml; for gain of fluorescence compared to baseline: twenty min into the reaction, FIG. 2B
Protocol: It was hypothesized that exposure of the probes to endonucleases would lead to DNA cleavage and dissociation of protruded strand from the hairpin (FIG. 2A). To assess which of the proposed probes is the best to measure endonuclease activity, the probes (0.5 μM) were exposed with recombinant human DNase I (1 μg/ml) and the kinetic fluorescence curves were recorded. Twenty min into the reaction, AB259.1, AB259.3 and AB259.5 gained 1.75-, 2.6- and 1.62-fold fluorescence, respectively, compared to the baseline (FIG. 2B). At 20-25 min, AB259.1 and AB259.3 reached the plateaus. […] Therefore, AB259.3 was chosen for further experiments.
as §1, §2

WT and DNase I KO mice = experiment: Intravital imaging of endonuclease activity in kidneys; conditions: 5 μl DNase I (0.1 mg/ml) subcapsular, left kidney, then AB259.3 50 nmol/kg i.v.; FIGS. 7F and 7G
Excerpt: At the next step, WT and DNase I KO mice were anesthetized and intravenously administered with 50 nmol/kg of AB259.3 probe followed by intravital imaging using Xenogen-IVIS.
To additionally confirm preferential accumulation and processing of AB259.3 probe in kidneys, separate set of mice was deeply anesthetized and subjected to abdominal incision and real-time intravital visualization of left kidney while performing intravenous injection of AB259.3 probe. […] For this, DNase I KO animals were subjected to open surgery that was used to administer 5 μl DNase I (0.1 mg/ml) to subcapsular space of upper ventral zone of left kidney. To control effect of DNase I, additional WT and DNase I KO mice were injected with same volume of the vehicle. Immediately after injection, mice were injected with 50 nmol/kg of AB259.3 probe intravenously and then imaged in a Xenogen-IVIS.
Male DNase I KO mice and their WT counterparts at the age 8-10 weeks were used for all experiments. All procedures with mice were performed under general anesthesia with 50 mg/kg ketamine. For subcutaneous administration, mice were injected with 10 μl of 0.1 μM AB259.3 in the dorsal subcutaneous site. For systemic visualization, AB259.3 was injected intravenously at 50 nmol/kg in tail vein.
Imaging of live and euthanized mice or their isolated organs were performed using Xenogen IVIS Image System 200 (Caliper Life Sciences, Hopkinton, Mass.) equipped with Living Image® Software.

O=C(O)CN(CCN(CC(=O)O)CC(=O)O)CC(=O)O [EDTA, reference compound]
effect on DNase I activity detected by AB259.3 fluorescence (DNase I [1]): inhibited | effect of EDTA on fluorescence increase in cryosections [2]: the increase of fluorescence was prevented

CC(C)c1cc(C(=O)O)c([O-])c(C(C)C)c1.CC(C)c1cc(C(=O)O)c([O-])c(C(C)C)c1.[Zn+2] [Zn-DIPS, zinc-diisopropyl salicylate]
effect on DNase I activity detected by AB259.3 fluorescence (DNase I [1]): suppressed

[Cl-].[Cl-].[Zn+2] [ZnCl2, zinc chloride]
effect on DNase I activity detected by AB259.3 fluorescence (DNase I [1]): suppressed

CC[C@@]1(O)C(=O)OCc2c1cc1n(c2=O)Cc2cc3ccccc3nc2-1 [camptothecin, reference compound]
induction of endonuclease activity (Cy5.5 fluorescence of AB259.3 in treated cells) (NRK-52E cells): significant increase of fluorescence

N.N.[Cl][Pt][Cl] [cisplatin, reference compound]
induction of endonuclease activity (Cy5.5 fluorescence of AB259.3 in treated cells) (NRK-52E cells): significant increase of fluorescence

[Cy5.5]AACACTCCGATGAGTGTAGAATGTACGAGT[Cy5.5] (DNA, 5' {Cy5.5}, 3' {Cy5.5}, backbone not given here; hairpin DNA probe) [AB259.5, hairpin DNA probe with Cy5.5 at both ends, protruding strand +10]
baseline fluorescence (in words) ([3]; correlated with length of protruded DNA end): much higher levels of the baseline fluorescence | gain of fluorescence on heat denaturing [4]: 1.8 times | gain of fluorescence on alkaline denaturing [5]: 85% | behaviour of fluorescence at 20-25 min (in words) (DNase I [6]): became variable and did not yield reliable gain of fluorescence thereafter | gain of fluorescence compared to baseline (DNase I [6]): 1.62 fold

[Cy5.5]AACACTCCGATGAGTGTA[Cy5.5] (DNA, 5' {Cy5.5}, 3' {Cy5.5}, backbone not given here; hairpin DNA probe) [AB259.1, hairpin DNA probe with Cy5.5 at both ends, protruding strand +0]
baseline fluorescence higher than negative control without a probe [3]: 30% | gain of fluorescence on heat denaturing [4]: 2.7 times | gain of fluorescence on alkaline denaturing [5]: 40% | gain of fluorescence compared to baseline (DNase I [6]): 1.75 fold

B1: DNase I: recombinant DNase I delivered to the kidneys of DNase I KO mice (protein, UniProt P24855 23-282, looked up)
Deoxyribonuclease-1: LKIAAFNIQTFGETKMSNATLVSYIVQILSRYDIALVQEVRDSHLTAVGKLLDNLNQDAPDTYHYVVSEPLGRNSYKERYLFVYRPDQVSAVDSYYYDDGCEPCGNDTFNREPAIVRFFSRFTEVREFAIVPLHAAPGDAVAEIDALYDVYLDVQEKWGLEDVMLMGDFNAGCSYVRPSQWSSIRLWTSPTFQWLIPDSADTTATPTHCAYDRIVVAGMLLRGAVVPDSALPFNFQAAYGLSDQLAQAISDHYPVEVMLK
kidney Cy5.5 fluorescence of DNase I KO mice after subcapsular DNase I (WT and DNase I KO mice): Cy5.5 fluorescence comparable to WT mice
